Laboratory results taken from the supplement of paper PMC11061612.

Key:
Assay in all cases: Bliss excess, mean over the matrix (fraction); higher = more synergy
[1] = tested on: A704 (Kidney Carcinoma)
Summary of the method: (§1)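 Cell lines in DMEM/F12 or RPMI with 10% FBS were plated in 1536-well plates, held 24 hours at 37°C, 5% CO2, then given two-drug dose matrices for 72 hours (DMSO typically 0.2%). Viability was read by CellTiter-Glo 2.0 luminescence and scaled as inhibition from 0 (vehicle wells) to 1 (blank wells). Combination Emax is the second-highest inhibition in the matrix; Bliss excess is observed combination effect minus expected EA + EB − EA·EB, EA and EB being single-agent effects.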

[2] = tested on: DG-75 (Burkitt's Lymphoma)
Summary of the method: as §1

[3] = tested on: EW-3 (Ewing's Sarcoma)
Summary of the method: as §1

[4] = tested on: HC-1 (Other Blood Carcinomas)
Summary of the method: as §1

[5] = tested on: HuP-T3 (Pancreatic Carcinoma)
Summary of the method: as §1

[6] = tested on: JHH-7 (Hepatocellular Carcinoma)
Summary of the method: as §1

[7] = tested on: KLE (Endometrial Carcinoma)
Summary of the method: as §1

[8] = tested on: KP-2 (Pancreatic Carcinoma)
Summary of the method: as §1

[9] = tested on: KU-19-19 (Bladder Carcinoma)
Summary of the method: as §1

[10] = tested on: MFE-319 (Endometrial Carcinoma)
Summary of the method: as §1

[11] = tested on: OCUB-M (Breast Carcinoma)
Summary of the method: as §1

[12] = tested on: SCC-3 (B-Cell Non-Hodgkin's Lymphoma)
Summary of the method: as §1

[13] = tested on: TGBC11TKB (Gastric Carcinoma)
Summary of the method: as §1

Row | SMILES | Bliss excess [1] | Bliss excess [2] | Bliss excess [3] | Bliss excess [4] | Bliss excess [5] | Bliss excess [6] | Bliss excess [7] | Bliss excess [8] | Bliss excess [9] | Bliss excess [10] | Bliss excess [11] | Bliss excess [12] | Bliss excess [13]
1 | COc1cc2c(cc1OCCCCCOc1cc3c(cc1OC)C(=O)N1C=C(C)C[C@H]1C=N3)N=C[C@@H]1CC(C)=CN1C2=O [SG3199] + O=C(c1cc(Cc2n[nH]c(=O)c3ccccc23)ccc1F)N1CCN(C(=O)C2CC2)CC1 [Olaparib] (first compound max 0.001 µM, 7x7, partner max 10 µM) | -0.025 | 0.0064 | -0.0613 | -0.0164 | -0.0442 | -0.0368 | 0.0057 | -0.0193 | -0.0041 | -0.041 | -0.0502 | 0.0586 | -0.0038
2 | CCN(CCO)CCCOc1ccc2c(Nc3cc(CC(=O)Nc4cccc(F)c4)[nH]n3)ncnc2c1 [AZD2811] + C=CCn1c(=O)c2cnc(Nc3ccc(N4CCN(C)CC4)cc3)nc2n1-c1cccc(C(C)(C)O)n1 [AZD1775] (first compound max 1 µM, partner max 1 µM) | -0.0547 | 0.086 | 0.0844 | 0.0697 | -0.0366 | -0.0186 | -0.0513 | -0.001 | -0.014 | -0.0361 | 0.0312 | -0.011 | 0.0257
3 | COc1cccc(OCCCN)c1-c1cc(Nc2cnc(C#N)cn2)n[nH]1 [Prexasertib] + CN(C)CCCOc1ccc(-c2ccc3ncc4c(c3c2)n(C2CCOCC2)c(=O)n4C)cn1 [AZD0156] (first compound max 1 µM, 7x7, partner max 1 µM) | 0.0033 | -0.0093 | -0.0437 | -0.0134 | 0.0713 | -0.021 | 0.002 | -0.0286 | -0.0046 | -0.0129 | -0.022 | 0.0103 | -0.0009
4 | CCc1c2c(nc3ccc(O)cc13)-c1cc3c(c(=O)n1C2)COC(=O)[C@]3(O)CC [SN-38] + CN(C)CCCOc1ccc(-c2ccc3ncc4c(c3c2)n(C2CCOCC2)c(=O)n4C)cn1 [AZD0156] (first compound max 0.3 µM, 7x7, partner max 1 µM) | -0.0533 | 0.0751 | -0.0679 | -0.0261 | 0.0438 | 0.0084 | -0.0034 | 0.0154 | 0.0033 | -0.0108 | 0.126 | 0.0372 | 0.0074
5 | COc1cccc(OCCCN)c1-c1cc(Nc2cnc(C#N)cn2)n[nH]1 [Prexasertib] + C=CCn1c(=O)c2cnc(Nc3ccc(N4CCN(C)CC4)cc3)nc2n1-c1cccc(C(C)(C)O)n1 [AZD1775] (first compound max 1 µM, partner max 1 µM) | 0.018 | 0.0708 | 0.0286 | 0.0149 | 0.0054 | 0.107 | 0.112 | 0.112 | 0.0222 | -0.0049 | 0.232 | 0.051 | 0.0431
6 | Cc1cc2ncnn2cc1Nc1ncc2c(n1)n(C1CCOCC1)c(=O)n2C [AZD7648] + CCN(CCO)CCCOc1ccc2c(Nc3cc(CC(=O)Nc4cccc(F)c4)[nH]n3)ncnc2c1 [AZD2811] (first compound max 10 µM, 7x7, partner max 1 µM) | -0.0368 | 0.0393 | -0.0156 | 0.0045 | 0.0003 | -0.0244 | -0.0193 | -0.0206 | 0.0227 | 0.0419 | -0.0108 | 0.0548 | 0.0666
7 | C=CCn1c(=O)c2cnc(Nc3ccc(N4CCN(C)CC4)cc3)nc2n1-c1cccc(C(C)(C)O)n1 [AZD1775] + O=C(c1cc(Cc2n[nH]c(=O)c3ccccc23)ccc1F)N1CCN(C(=O)C2CC2)CC1 [Olaparib] (first compound max 1 µM, partner max 10 µM) | -0.0396 | -0.0491 | -0.0619 | -0.0393 | -0.0047 | -0.0398 | -0.0499 | -0.0145 | -0.0107 | -0.0235 | -0.0211 | -0.0259 | -0.0299
8 | Cc1cc2ncnn2cc1Nc1ncc2c(n1)n(C1CCOCC1)c(=O)n2C [AZD7648] + C[C@@H]1COCCN1C2=NC(=NC(=C2)C3(CC3)[S@](=N)(=O)C)C4=C5C=CNC5=NC=C4 [AZD6738] (first compound max 10 µM, 7x7, partner max 10 µM) | 0.0177 | -0.0477 | -0.0607 | -0.131 | -0.0453 | 0.0247 | -0.0639 | 0.0004 | -0.0127 | 0.0546 | 0.0509 | -0.0083 | 0.0009
9 | Cc1cc2ncnn2cc1Nc1ncc2c(n1)n(C1CCOCC1)c(=O)n2C [AZD7648] + C=CCn1c(=O)c2cnc(Nc3ccc(N4CCN(C)CC4)cc3)nc2n1-c1cccc(C(C)(C)O)n1 [AZD1775] (first compound max 10 µM, partner max 1 µM) | -0.0409 | -0.0652 | -0.0894 | -0.106 | -0.0189 | -0.0337 | 0.0159 | -0.014 | -0.0201 | -0.0055 | 0.0389 | -0.0277 | -0.0551
10 | CN(C)CCCOc1ccc(-c2ccc3ncc4c(c3c2)n(C2CCOCC2)c(=O)n4C)cn1 [AZD0156] + C=CCn1c(=O)c2cnc(Nc3ccc(N4CCN(C)CC4)cc3)nc2n1-c1cccc(C(C)(C)O)n1 [AZD1775] (first compound max 1 µM, partner max 1 µM) | -0.0484 | 0.0097 | 0.002 | -0.0238 | -0.051 | -0.0412 | 0.0559 | -0.0331 | -0.0043 | -0.0706 | -0.0958 | -0.0162 | -0.0482
11 | COc1cccc(OCCCN)c1-c1cc(Nc2cnc(C#N)cn2)n[nH]1 [Prexasertib] + C[C@@H]1COCCN1C2=NC(=NC(=C2)C3(CC3)[S@](=N)(=O)C)C4=C5C=CNC5=NC=C4 [AZD6738] (first compound max 1 µM, 7x7, partner max 10 µM) | 0.0224 | -0.0381 | -0.0275 | -0.0139 | 0.0032 | 0.0381 | -0.0393 | -0.0324 | -0.0796 | -0.0238 | 0.0421 | -0.0201 | -0.0137
12 | COc1cccc2c1C(=O)c1c(O)c3c(c(O)c1C2=O)C[C@@](O)(C(=O)CO)C[C@@H]3O[C@H]1C[C@H](N)[C@H](O)[C@H](C)O1 [Doxorubicin] + Cc1cc2ncnn2cc1Nc1ncc2c(n1)n(C1CCOCC1)c(=O)n2C [AZD7648] (first compound max 1 µM, 7x7, partner max 10 µM) | -0.023 | 0.0787 | 0.005 | 0.0693 | 0.0022 | 0.0271 | -0.002 | 0.0223 | 0.0843 | 0.0152 | 0.0696 | 0.158 | -0.0146
13 | Cc1cc2ncnn2cc1Nc1ncc2c(n1)n(C1CCOCC1)c(=O)n2C [AZD7648] + CN(C)CCCOc1ccc(-c2ccc3ncc4c(c3c2)n(C2CCOCC2)c(=O)n4C)cn1 [AZD0156] (first compound max 10 µM, 7x7, partner max 1 µM) | -0.0152 | 0.0226 | -0.0281 | -0.0398 | -0.0065 | -0.0152 | 0.0175 | -0.0182 | 0.0009 | 0.0572 | -0.0055 | 0.0458 | -0.0224
14 | Cc1cc2ncnn2cc1Nc1ncc2c(n1)n(C1CCOCC1)c(=O)n2C [AZD7648] + O=C(c1cc(Cc2n[nH]c(=O)c3ccccc23)ccc1F)N1CCN(C(=O)C2CC2)CC1 [Olaparib] (first compound max 10 µM, 7x7, partner max 10 µM) | -0.0821 | 0.0465 | -0.0743 | -0.0389 | -0.0254 | -0.0356 | -0.013 | -0.0017 | -0.0153 | -0.0499 | -0.0467 | -0.0757 | -0.0447
15 | CN(C)CCCOc1ccc(-c2ccc3ncc4c(c3c2)n(C2CCOCC2)c(=O)n4C)cn1 [AZD0156] + C[C@@H]1COCCN1C2=NC(=NC(=C2)C3(CC3)[S@](=N)(=O)C)C4=C5C=CNC5=NC=C4 [AZD6738] (first compound max 1 µM, 7x7, partner max 10 µM) | -0.0067 | 0.0645 | -0.0721 | -0.0214 | 0.0181 | 0.0082 | -0.0567 | 0.0173 | 0.0275 | -0.0027 | -0.026 | 0.0521 | 0.0055
16 | C=CCn1c(=O)c2cnc(Nc3ccc(N4CCN(C)CC4)cc3)nc2n1-c1cccc(C(C)(C)O)n1 [AZD1775] + C[C@@H]1COCCN1C2=NC(=NC(=C2)C3(CC3)[S@](=N)(=O)C)C4=C5C=CNC5=NC=C4 [AZD6738] (first compound max 1 µM, partner max 10 µM) | -0.0022 | 0.0482 | -0.131 | -0.017 | 0.0338 | 0.0273 | -0.0361 | 0.0329 | -0.0113 | 0.0583 | 0.0642 | 0.0428 | 0.0431
17 | COc1cccc(OCCCN)c1-c1cc(Nc2cnc(C#N)cn2)n[nH]1 [Prexasertib] + O=C(c1cc(Cc2n[nH]c(=O)c3ccccc23)ccc1F)N1CCN(C(=O)C2CC2)CC1 [Olaparib] (first compound max 1 µM, 7x7, partner max 10 µM) | -0.0973 | -0.0819 | -0.0378 | 0.0035 | -0.0595 | -0.0795 | 0.0514 | -0.0682 | 0.0061 | -0.0891 | 0.0018 | -0.0133 | -0.0658
18 | COc1cccc(OCCCN)c1-c1cc(Nc2cnc(C#N)cn2)n[nH]1 [Prexasertib] + Cc1cc2ncnn2cc1Nc1ncc2c(n1)n(C1CCOCC1)c(=O)n2C [AZD7648] (first compound max 1 µM, 7x7, partner max 10 µM) | 0.0144 | -0.055 | 0.0201 | 0.0069 | 0.016 | -0.0143 | 0.0213 | 0.0258 | -0.0038 | -0.0064 | -0.0611 | -0.0082 | -0.0148
19 | C[C@@H]1COCCN1c1cc(C2([S@](C)(=N)=O)CC2)nc(-c2ccnc3[nH]ccc23)n1 [AZD6738] + O=C(c1cc(Cc2n[nH]c(=O)c3ccccc23)ccc1F)N1CCN(C(=O)C2CC2)CC1 [Olaparib] (first compound max 10 µM, 7x7, partner max 10 µM) | -0.0282 | -0.0619 | -0.0558 | -0.0238 | 0.0066 | 0.0012 | -0.0307 | 0.0024 | -0.032 | -0.0089 | 0.0347 | 0.0103 | -0.0236
20 | CS(=O)(=O)CCNCc1ccc(-c2ccc3ncnc(Nc4ccc(OCc5cccc(F)c5)c(Cl)c4)c3c2)o1 [Lapatinib] + NC1(c2ccc(-c3nc4ccn5c(=O)[nH]nc5c4cc3-c3ccccc3)cc2)CCC1 [MK-2206] (first compound max 10 µM, 7x7, partner max 10 µM) |  |  | 0.0455 |  |  | -0.036 |  |  | -0.0103 | -0.0155 | 0.142 |  | -0.0334
